Legend:
Type in all cases: cell-based
[1] = system: RNA transcripts in HDF cell line; assay: ΔPSI (iExon production / exon inclusion), FET and Fold Decrease of RNA transcripts in HDF cell line treated at 3 μM; conditions: for FD HDF: Fold Decrease
Experimental: (§1) Results: The statistically significant value for the likelihood of iExon production (ΔPSI) according to the Fisher's Exact Test (FET) for PNN and HDF cell lines treated with Compound 774 at 3 μM and Fold Decrease (FD) for certain genes tested, where NR represents “Not Reported,” is shown in Table 10.
(§2) The ΔPSI for inclusion of an iExon and resulting modulated expression of RNA transcripts identified is represented by stars, where one star (*) represents ≤25% change in expression, where two stars (**) represent change in expression in a range from <26% to ≤50% change, where three stars (***) represent change in expression in a range from <51% to ≤75% change, and, where four stars (****) represent change in expression in a range from <75% to ≤100% change.
(§3) Results: The statistically significant value for the likelihood of exon inclusion (ΔPSI) according to the Fisher's Exact Test (FET) for PNN and HDF cell lines treated with Compound 774 at 3 μM and Fold Decrease (FD) for certain genes tested, where NR represents “Not Reported,” is shown in Table 10a.
(§4) The ΔPSI for inclusion of an exon and resulting modulated expression of RNA transcripts identified is represented by stars, where one star (*) represents ≤25% change in expression, where two stars (**) represent change in expression in a range from <26% to ≤50% change, where three stars (***) represent change in expression in a range from <51% to ≤75% change, and, where four stars (****) represent change in expression in a range from <75% to ≤100% change.

[2] = system: RNA transcripts in PNN cell line; assay: ΔPSI (iExon production / exon inclusion), FET and Fold Decrease of RNA transcripts in PNN cell line treated at 3 μM; conditions: for FD PNN: Fold Decrease
Experimental: as §1, §2, §3, §4

[3] = system: iExons for certain genes (as specified in the figures); assay: Dose dependent production of iExons in the presence of compound or control (DMSO); conditions: FIGS. 2A-2D, versus control (DMSO)
Experimental: In some embodiments, a dose-response assay is performed. […] In another embodiment, the dose-response assay comprises: (a) contacting each well of a microtiter plate containing cells with a different concentration of a compound of Formula (I) or a form thereof; (b) determining the amount of an RNA transcript produced by cells in each well; and (c) assessing the change of the amount of the RNA transcript at the different concentrations of the compound or form thereof. […]
In specific embodiments, the amount of alternatively spliced forms of the RNA transcripts of a particular gene are measured to see if there is an alteration in the amount of one, two or more alternatively spliced forms of the RNA transcripts of the gene. In some embodiments, the amount of an isoform(s) encoded by a particular gene is measured to see if there is an alteration in the amount of the isoform(s). In certain embodiments, the levels of spliced forms of RNA are quantified by RT-PCR, RT-qPCR, RNA-Seq, digital color-coded barcode technology, or Northern blot. […] In certain embodiments, splicing is measured in vitro using nuclear extracts. In some embodiments, detection is based on measuring radioactivity or fluorescence. […] In a specific embodiment, modulation of RNA transcripts is assessed as described in the Examples described herein.

[4] = gene FAM198B, exon e3, HDF cells, 3 μM
[5] = gene PRUNE2, exon e18, HDF cells, 3 μM
[6] = gene FAM198B, exon e3, PNN cells, 3 μM
[7] = gene PRUNE2, exon e18, PNN cells, 3 μM

CCc1nc(C)cn2nc(-c3cc(=O)n4cc(C5CCN(C)CC5)cc(C)c4n3)cc12 [Compound 774]
FD HDF [1, 4]: −0.35
FD HDF [1, 5]: −1.74
ΔPSI (HDF) ([1]; gene APLP2, exon e7, HDF cells, 3 μM): ** (two stars (**) represent change in expression in a range from <26% to ≤50% change)
ΔPSI (HDF) ([1]; gene AXIN1, exon e9, HDF cells, 3 μM): * (one star (*) represents ≤25% change in expression)
ΔPSI (HDF) ([1]; gene CECR7, exon e5, HDF cells, 3 μM): * (one star (*) represents ≤25% change in expression)
ΔPSI (HDF) ([1]; gene DAGLB, exon e4, HDF cells, 3 μM): * (one star (*) represents ≤25% change in expression)
ΔPSI (HDF) ([1]; gene DLGAP4, exon e8, HDF cells, 3 μM): * (one star (*) represents ≤25% change in expression)
ΔPSI (HDF) ([1]; gene ERCC1, exon e8, HDF cells, 3 μM): * (one star (*) represents ≤25% change in expression)
ΔPSI (HDF) ([1]; gene ERGIC3, exon e8, HDF cells, 3 μM): * (one star (*) represents ≤25% change in expression)
ΔPSI (HDF) [1, 4]: * (one star (*) represents ≤25% change in expression)
ΔPSI (HDF) ([1]; gene GGCT, exon e2, HDF cells, 3 μM): ** (two stars (**) represent change in expression in a range from <26% to ≤50% change)
ΔPSI (HDF) ([1]; gene HAT1, exon e3, HDF cells, 3 μM): * (one star (*) represents ≤25% change in expression)
ΔPSI (HDF) ([1]; gene HPS1, exon e5, HDF cells, 3 μM): * (one star (*) represents ≤25% change in expression)
ΔPSI (HDF) ([1]; gene INPP5K, exon e2, HDF cells, 3 μM): * (one star (*) represents ≤25% change in expression)
ΔPSI (HDF) ([1]; gene MADD, exon e21, HDF cells, 3 μM): * (one star (*) represents ≤25% change in expression)
ΔPSI (HDF) ([1]; gene PPHLN1, exon e3, HDF cells, 3 μM): ** (two stars (**) represent change in expression in a range from <26% to ≤50% change)
ΔPSI (HDF) [1, 5]: ** (two stars (**) represent change in expression in a range from <26% to ≤50% change)
ΔPSI (HDF) ([1]; gene RAP1A, exon e2, HDF cells, 3 μM): * (one star (*) represents ≤25% change in expression)
ΔPSI (HDF) ([1]; gene RNFT1, exon e3, HDF cells, 3 μM): * (one star (*) represents ≤25% change in expression)
ΔPSI (HDF) ([1]; gene RPS6KB2, exon e2, HDF cells, 3 μM): * (one star (*) represents ≤25% change in expression)
ΔPSI (HDF) ([1]; gene SH3YL1, exon e9, HDF cells, 3 μM): * (one star (*) represents ≤25% change in expression)
ΔPSI (HDF) ([1]; gene SKA2, exon e3, HDF cells, 3 μM): * (one star (*) represents ≤25% change in expression)
ΔPSI (HDF) ([1]; gene SPATA18, exon e4, HDF cells, 3 μM): * (one star (*) represents ≤25% change in expression)
ΔPSI (HDF) ([1]; gene STRN3, exon e8, HDF cells, 3 μM): *** (three stars (***) represent change in expression in a range from <51% to ≤75% change)
ΔPSI (HDF) ([1]; gene TMEM189-UBE2V1, exon e6, HDF cells, 3 μM): * (one star (*) represents ≤25% change in expression)
ΔPSI (HDF) ([1]; gene TRIM65, exon e5, HDF cells, 3 μM): ** (two stars (**) represent change in expression in a range from <26% to ≤50% change)
ΔPSI (HDF) ([1]; gene TUBE1, exon e4, HDF cells, 3 μM): * (one star (*) represents ≤25% change in expression)
ΔPSI (HDF) ([1]; gene UBE2V1, exon e3, HDF cells, 3 μM): * (one star (*) represents ≤25% change in expression)
ΔPSI (HDF) ([1]; gene VPS29, exon e2, HDF cells, 3 μM): ** (two stars (**) represent change in expression in a range from <26% to ≤50% change)
ΔPSI (HDF) ([1]; gene ZFP82, iExon inclusion position i4, HDF cell line, Compound 774 at 3 μM): ** (two stars (**) represent change in expression in a range from <26% to ≤50% change)
ΔPSI (HDF) ([1]; gene ZNF37BP, iExon inclusion position i4, HDF cell line, Compound 774 at 3 μM): *** (three stars (***) represent change in expression in a range from <51% to ≤75% change)
ΔPSI (HDF) ([1]; gene ZNF138, iExon inclusion position i3, HDF cell line, Compound 774 at 3 μM): * (one star (*) represents ≤25% change in expression)
ΔPSI (HDF) ([1]; gene ZNF232, iExon inclusion position i4, HDF cell line, Compound 774 at 3 μM): * (one star (*) represents ≤25% change in expression)
ΔPSI (HDF) ([1]; gene ZNF680, exon e3, HDF cells, 3 μM): * (one star (*) represents ≤25% change in expression)
FD PNN [2, 6]: −1.81
FD PNN [2, 7]: −0.52
ΔPSI (PNN) ([2]; gene APLP2, exon e7, PNN cells, 3 μM): ** (two stars (**) represent change in expression in a range from <26% to ≤50% change)
ΔPSI (PNN) ([2]; gene AXIN1, exon e9, PNN cells, 3 μM): ** (two stars (**) represent change in expression in a range from <26% to ≤50% change)
ΔPSI (PNN) ([2]; gene CECR7, exon e5, PNN cells, 3 μM): * (one star (*) represents ≤25% change in expression)
ΔPSI (PNN) ([2]; gene DAGLB, exon e4, PNN cells, 3 μM): * (one star (*) represents ≤25% change in expression)
ΔPSI (PNN) ([2]; gene DLGAP4, exon e8, PNN cells, 3 μM): * (one star (*) represents ≤25% change in expression)
ΔPSI (PNN) ([2]; gene ERCC1, exon e8, PNN cells, 3 μM): * (one star (*) represents ≤25% change in expression)
ΔPSI (PNN) ([2]; gene ERGIC3, exon e8, PNN cells, 3 μM): * (one star (*) represents ≤25% change in expression)
ΔPSI (PNN) [2, 6]: * (one star (*) represents ≤25% change in expression)
ΔPSI (PNN) ([2]; gene GGCT, exon e2, PNN cells, 3 μM): ** (two stars (**) represent change in expression in a range from <26% to ≤50% change)
ΔPSI (PNN) ([2]; gene HAT1, exon e3, PNN cells, 3 μM): * (one star (*) represents ≤25% change in expression)
ΔPSI (PNN) ([2]; gene HPS1, exon e5, PNN cells, 3 μM): * (one star (*) represents ≤25% change in expression)
ΔPSI (PNN) ([2]; gene INPP5K, exon e2, PNN cells, 3 μM): * (one star (*) represents ≤25% change in expression)
ΔPSI (PNN) ([2]; gene MADD, exon e21, PNN cells, 3 μM): * (one star (*) represents ≤25% change in expression)
ΔPSI (PNN) ([2]; gene PPHLN1, exon e3, PNN cells, 3 μM): *** (three stars (***) represent change in expression in a range from <51% to ≤75% change)
ΔPSI (PNN) [2, 7]: * (one star (*) represents ≤25% change in expression)
ΔPSI (PNN) ([2]; gene RAP1A, exon e2, PNN cells, 3 μM): * (one star (*) represents ≤25% change in expression)
ΔPSI (PNN) ([2]; gene RNFT1, exon e3, PNN cells, 3 μM): * (one star (*) represents ≤25% change in expression)
ΔPSI (PNN) ([2]; gene RPS6KB2, exon e2, PNN cells, 3 μM): * (one star (*) represents ≤25% change in expression)
ΔPSI (PNN) ([2]; gene SH3YL1, exon e9, PNN cells, 3 μM): * (one star (*) represents ≤25% change in expression)
ΔPSI (PNN) ([2]; gene SKA2, exon e3, PNN cells, 3 μM): * (one star (*) represents ≤25% change in expression)
ΔPSI (PNN) ([2]; gene SPATA18, exon e4, PNN cells, 3 μM): ** (two stars (**) represent change in expression in a range from <26% to ≤50% change)
ΔPSI (PNN) ([2]; gene STRN3, exon e8, PNN cells, 3 μM): **** (four stars (****) represent change in expression in a range from <75% to ≤100% change)
ΔPSI (PNN) ([2]; gene TMEM189-UBE2V1, exon e6, PNN cells, 3 μM): * (one star (*) represents ≤25% change in expression)
ΔPSI (PNN) ([2]; gene TRIM65, exon e5, PNN cells, 3 μM): *** (three stars (***) represent change in expression in a range from <51% to ≤75% change)
ΔPSI (PNN) ([2]; gene TUBE1, exon e4, PNN cells, 3 μM): * (one star (*) represents ≤25% change in expression)
ΔPSI (PNN) ([2]; gene UBE2V1, exon e3, PNN cells, 3 μM): * (one star (*) represents ≤25% change in expression)
ΔPSI (PNN) ([2]; gene VPS29, exon e2, PNN cells, 3 μM): ** (two stars (**) represent change in expression in a range from <26% to ≤50% change)
ΔPSI (PNN) ([2]; gene ZFP82, iExon inclusion position i4, PNN cell line, Compound 774 at 3 μM): ** (two stars (**) represent change in expression in a range from <26% to ≤50% change)
ΔPSI (PNN) ([2]; gene ZNF37BP, iExon inclusion position i4, PNN cell line, Compound 774 at 3 μM): **** (four stars (****) represent change in expression in a range from <75% to ≤100% change)
ΔPSI (PNN) ([2]; gene ZNF138, iExon inclusion position i3, PNN cell line, Compound 774 at 3 μM): *** (three stars (***) represent change in expression in a range from <51% to ≤75% change)
ΔPSI (PNN) ([2]; gene ZNF232, iExon inclusion position i4, PNN cell line, Compound 774 at 3 μM): * (one star (*) represents ≤25% change in expression)
ΔPSI (PNN) ([2]; gene ZNF680, exon e3, PNN cells, 3 μM): * (one star (*) represents ≤25% change in expression)
dose dependent production of iExons for certain genes [3]: dose dependent production of iExons
